Results reported in patent publication US11572590B2, “Methods for evaluating tumor cell spheroids using 3D microfluidic cell culture device” (Dana-Farber Cancer Institute, Inc., priority 2017, dated 2023).
Like-named read-outs stand apart in the source and are kept apart here.

Legend:
Assay in all cases: SelectScreen Kinase Profiling, single point inhibition and IC50 for off-target kinases
Assay type in all cases: biochemical
off-target kinases [1] = molecular target: off-target kinases (Homo sapiens, UniProt Q15303); details: ERBB4 (HER4), ZLYTE, ATP Km app
Chain of off-target kinases (Homo sapiens, UniProt Q15303) (Q15303 26-1308): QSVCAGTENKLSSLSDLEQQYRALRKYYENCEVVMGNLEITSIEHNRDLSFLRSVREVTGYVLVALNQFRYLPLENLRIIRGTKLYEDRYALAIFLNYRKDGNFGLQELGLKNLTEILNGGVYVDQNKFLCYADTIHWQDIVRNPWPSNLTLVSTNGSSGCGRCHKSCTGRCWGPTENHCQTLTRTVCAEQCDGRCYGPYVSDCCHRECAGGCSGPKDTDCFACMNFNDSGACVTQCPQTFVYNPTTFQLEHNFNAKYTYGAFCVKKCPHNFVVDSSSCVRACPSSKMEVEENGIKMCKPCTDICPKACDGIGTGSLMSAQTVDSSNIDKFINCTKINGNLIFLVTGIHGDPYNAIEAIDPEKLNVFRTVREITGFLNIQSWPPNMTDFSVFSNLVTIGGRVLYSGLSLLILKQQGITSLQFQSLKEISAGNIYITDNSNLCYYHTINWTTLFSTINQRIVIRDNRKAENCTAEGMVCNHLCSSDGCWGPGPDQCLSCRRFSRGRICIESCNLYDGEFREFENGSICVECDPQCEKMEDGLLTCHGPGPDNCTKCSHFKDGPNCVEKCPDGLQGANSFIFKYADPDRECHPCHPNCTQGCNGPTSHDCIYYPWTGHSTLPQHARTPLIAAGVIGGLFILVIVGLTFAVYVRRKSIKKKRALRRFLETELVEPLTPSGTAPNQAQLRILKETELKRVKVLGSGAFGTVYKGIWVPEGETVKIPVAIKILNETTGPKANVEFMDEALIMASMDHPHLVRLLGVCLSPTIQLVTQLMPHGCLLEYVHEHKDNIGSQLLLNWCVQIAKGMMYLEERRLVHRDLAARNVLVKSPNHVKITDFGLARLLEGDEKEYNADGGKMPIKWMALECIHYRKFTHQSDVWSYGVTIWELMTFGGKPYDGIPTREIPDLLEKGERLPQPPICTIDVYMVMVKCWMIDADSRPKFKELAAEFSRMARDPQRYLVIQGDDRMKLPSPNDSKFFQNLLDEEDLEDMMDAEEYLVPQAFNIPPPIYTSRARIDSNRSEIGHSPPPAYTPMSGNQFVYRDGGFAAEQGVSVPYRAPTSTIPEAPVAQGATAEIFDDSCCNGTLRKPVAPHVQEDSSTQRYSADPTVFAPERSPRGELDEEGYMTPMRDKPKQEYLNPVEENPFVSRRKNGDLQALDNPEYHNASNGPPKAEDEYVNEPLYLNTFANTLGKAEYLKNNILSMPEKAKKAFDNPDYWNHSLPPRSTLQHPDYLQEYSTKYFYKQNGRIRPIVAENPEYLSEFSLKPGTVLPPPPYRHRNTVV

off-target kinases [2] = molecular target: off-target kinases (Homo sapiens, UniProt P15056, V600E); details: BRAF V599E
Chain of off-target kinases (Homo sapiens, UniProt P15056, V600E) (P15056 whole entry V600E): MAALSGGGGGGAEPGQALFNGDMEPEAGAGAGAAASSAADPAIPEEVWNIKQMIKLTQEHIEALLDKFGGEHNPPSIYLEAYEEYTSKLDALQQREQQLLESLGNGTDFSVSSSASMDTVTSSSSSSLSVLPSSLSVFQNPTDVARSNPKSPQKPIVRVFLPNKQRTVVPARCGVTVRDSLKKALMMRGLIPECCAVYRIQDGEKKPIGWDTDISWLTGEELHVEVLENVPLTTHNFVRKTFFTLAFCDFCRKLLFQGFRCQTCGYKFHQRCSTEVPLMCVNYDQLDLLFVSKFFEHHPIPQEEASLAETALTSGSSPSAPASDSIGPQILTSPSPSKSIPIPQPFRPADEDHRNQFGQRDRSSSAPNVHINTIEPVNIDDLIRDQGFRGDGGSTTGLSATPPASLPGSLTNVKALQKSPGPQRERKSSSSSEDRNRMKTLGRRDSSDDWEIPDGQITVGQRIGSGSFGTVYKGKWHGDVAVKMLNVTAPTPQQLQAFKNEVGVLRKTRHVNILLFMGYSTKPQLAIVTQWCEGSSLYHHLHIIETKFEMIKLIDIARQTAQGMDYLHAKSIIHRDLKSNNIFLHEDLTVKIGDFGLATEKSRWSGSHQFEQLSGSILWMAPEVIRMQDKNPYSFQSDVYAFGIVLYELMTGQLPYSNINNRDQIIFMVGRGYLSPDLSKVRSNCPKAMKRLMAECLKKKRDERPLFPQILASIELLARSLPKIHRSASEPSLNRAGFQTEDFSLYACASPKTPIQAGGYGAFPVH

off-target kinases [3] = molecular target: T1, off-target kinases (Homo sapiens, UniProt Q8TDC3); details: BRSK1 (SAD1), ATP Km app, ZLYTE
T1 sequence (Q8TDC3 1-778): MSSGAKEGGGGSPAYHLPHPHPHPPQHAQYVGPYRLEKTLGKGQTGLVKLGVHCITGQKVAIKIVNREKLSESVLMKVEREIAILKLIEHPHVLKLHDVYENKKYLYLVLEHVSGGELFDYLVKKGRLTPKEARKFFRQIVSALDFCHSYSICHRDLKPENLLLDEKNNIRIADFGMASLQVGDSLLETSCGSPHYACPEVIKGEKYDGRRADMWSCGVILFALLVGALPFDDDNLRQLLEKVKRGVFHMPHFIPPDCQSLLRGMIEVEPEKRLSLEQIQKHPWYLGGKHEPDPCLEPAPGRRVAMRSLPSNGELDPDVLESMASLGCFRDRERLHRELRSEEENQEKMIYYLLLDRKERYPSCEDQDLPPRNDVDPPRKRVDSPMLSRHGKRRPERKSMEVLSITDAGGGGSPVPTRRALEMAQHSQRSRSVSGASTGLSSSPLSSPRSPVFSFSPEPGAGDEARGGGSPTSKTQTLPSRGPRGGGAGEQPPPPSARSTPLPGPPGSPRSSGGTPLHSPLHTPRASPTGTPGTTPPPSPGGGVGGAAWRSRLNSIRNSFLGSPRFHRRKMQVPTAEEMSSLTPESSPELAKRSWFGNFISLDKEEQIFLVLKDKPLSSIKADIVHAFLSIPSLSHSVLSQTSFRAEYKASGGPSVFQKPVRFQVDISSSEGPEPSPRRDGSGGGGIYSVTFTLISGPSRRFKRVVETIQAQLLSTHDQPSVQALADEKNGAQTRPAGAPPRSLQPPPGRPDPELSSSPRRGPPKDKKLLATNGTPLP

Q: Which results are given for N#Cc1cc(-c2ncnc(Nc3ccc(N4CCN(C5COC5)CC4)cc3)n2)ccc1OC1CCOCC1 [Compound 1, 5-(4-((4-(4-(oxetan-3-yl)piperazin-1-yl)phenyl)amino)-1,3,5-triazin-2-yl)-2-((tetrahydro-2H-pyran-4-yl)oxy)benzonitrile]?
A: inhibition (off-target kinases [1]; read-out: % Inhibition 1): 8%; inhibition (off-target kinases [1]; read-out: % Inhibition 2): 5%; inhibition (off-target kinases [1]; read-out: % Inhibition Avg): 6%; inhibition (off-target kinases [2]; ATP 100, ZLYTE, read-out: % Inhibition 1): 63%; inhibition (off-target kinases [2]; ATP 100, ZLYTE, read-out: % Inhibition 2): 61%; inhibition (off-target kinases [2]; ATP 100, ZLYTE, read-out: % Inhibition Avg): 62%; inhibition (off-target kinases [2]; LanthaScreen Binding, read-out: % Inhibition 1): 50%; inhibition (off-target kinases [2]; LanthaScreen Binding, read-out: % Inhibition 2): 53%; inhibition (off-target kinases [2]; LanthaScreen Binding, read-out: % Inhibition Avg): 52%; inhibition (off-target kinases [3]; read-out: % Inhibition 1): 92%; inhibition (off-target kinases [3]; read-out: % Inhibition 2): 89%; inhibition (off-target kinases [3]; read-out: % Inhibition Avg): 90%
